Test results published in patent US20240158446A1, “CYCLIC COMPOUND HAVING SELECTIVE INHIBITORY ACTION ON KRAS OVER HRAS AND NRAS” (CHUGAI SEIYAKU KABUSHIKI KAISHA, priority 2021, published 2024).
Where two headings read alike, the source gives them in different places. Where a SMILES comes first, the peptide text is derived from it. Bridges are numbered along the chain shown (N, C = ends). [ ]: non-standard residue; d: D form. The star is where a group is joined. hPhe(3-Cl-4-CF3) = N[C@@H](CCc1ccc(C(F)(F)F)c(Cl)c1)C(=O)O; NMePhe(4-Me) = CN[C@@H](Cc1ccc(C)cc1)C(=O)O; NMeGly(cPent) = CN[C@H](C(=O)O)C1CCCC1; NMeD = CN[C@@H](CC(=O)O)C(=O)O; NMeL = CN[C@@H](CC(C)C)C(=O)O; Morpholide = C1CN(*)CCO1; Ac5c = NC1(C(=O)O)CCCC1; NBuGly = CCCCNCC(=O)O; Sar = CNCC(=O)O

Columns and labels:
[1] = target: GDP-bound KRAS wild-type protein (Homo sapiens, UniProt P01116); assay: Binding to KRAS by surface plasmon resonance (SPR), Single Cycle Kinetics; conditions: GDP-bound KRAS wild-type protein, read-out: KRAS KD
Sequence of GDP-bound KRAS wild-type protein (P01116 whole entry): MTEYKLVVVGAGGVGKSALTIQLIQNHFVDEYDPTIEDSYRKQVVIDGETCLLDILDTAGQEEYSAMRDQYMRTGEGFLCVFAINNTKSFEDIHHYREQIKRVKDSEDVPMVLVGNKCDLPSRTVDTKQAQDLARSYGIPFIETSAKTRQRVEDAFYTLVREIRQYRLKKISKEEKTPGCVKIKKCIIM

[2] = target: GDP-bound NRAS wild-type protein (Homo sapiens, UniProt P01111); assay: Binding to NRAS by surface plasmon resonance (SPR), Single Cycle Kinetics; conditions: for NRAS/KRAS (ratio of KD value with respect to GDP-bound NRAS wild-type protein to KD value with respect to KRAS): SPR KD ratio NRAS/KRAS, class symbols
Sequence of GDP-bound NRAS wild-type protein (P01111 whole entry): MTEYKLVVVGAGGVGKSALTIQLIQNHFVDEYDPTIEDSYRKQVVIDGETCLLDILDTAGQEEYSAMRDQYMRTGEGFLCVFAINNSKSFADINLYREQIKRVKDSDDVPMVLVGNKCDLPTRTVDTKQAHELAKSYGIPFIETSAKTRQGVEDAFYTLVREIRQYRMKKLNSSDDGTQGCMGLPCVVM

[3] = target: GDP-bound HRAS wild-type protein (Homo sapiens, UniProt P01112); assay: Binding to HRAS by surface plasmon resonance (SPR), Single Cycle Kinetics; conditions: for HRAS/KRAS (ratio of KD value with respect to GDP-bound HRAS wild-type protein to KD value with respect to KRAS): SPR KD ratio HRAS/KRAS, class symbols
Sequence of GDP-bound HRAS wild-type protein (P01112 whole entry): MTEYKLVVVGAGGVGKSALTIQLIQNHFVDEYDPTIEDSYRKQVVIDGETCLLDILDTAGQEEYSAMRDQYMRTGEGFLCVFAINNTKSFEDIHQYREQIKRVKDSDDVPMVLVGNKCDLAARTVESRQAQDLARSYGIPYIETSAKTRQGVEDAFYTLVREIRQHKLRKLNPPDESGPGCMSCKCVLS

[4] = SPR, GDP-bound NRAS wild-type protein vs GDP-bound KRAS wild-type protein
[5] = SPR, GDP-bound HRAS wild-type protein vs GDP-bound KRAS wild-type protein
[6] = SPR Single Cycle Kinetics, 1:1 binding model

C#CCN1CC(=O)N(C)[C@H]2C/C=C\CCN(C2=O)[C@@H](Cc2ccc(C(F)(F)F)cc2)C(=O)N(C)CC(=O)N[C@@H](CCc2ccc(C(F)(F)F)c(OC)c2)C(=O)N2C[C@H](OCC)C[C@H]2C(=O)NC2(CC(C)(C)C2)C(=O)N(C)[C@@H](C2CCCC2)C(=O)N(C)[C@H](C(=O)N(C)C)CC(=O)N(C)[C@@H](CCC)C(=O)N[C@@H]([C@@H](C)CC)C1=O [PP2107]
Kd ([1]; SPR, Single Cycle Kinetics): 0.15 nM | NRAS/KRAS (ratio of KD value for NRAS to KD value for KRAS) [2, 4]: A (a compound having 10 or more and less than 20 is denoted as A) | HRAS/KRAS (ratio of KD value for HRAS to KD value for KRAS) [3, 5]: A (a compound having 10 or more and less than 20 is denoted as A)

CC[C@H](C)[C@@H]1NC(=O)[C@H](CC)N(C)C(=O)C[C@@H](C(=O)N(C)C)N(CC)C(=O)[C@H](C2CCCC2)N(C)C(=O)C2(CCC2)NC(=O)[C@@H]2CCCCN2C(=O)[C@H](CCc2cc(F)c(C(F)(F)F)c(F)c2)NC(=O)CN(C)C(=O)[C@H](Cc2ccc(C(F)(F)F)cc2)N2CCCC[C@@H](C2=O)N(C)C(=O)CN(C)C1=O [PP0661]
Kd [1, 6]: 0.34 nM | NRAS/KRAS (ratio of KD value with respect to NRAS to KD value with respect to KRAS) [2, 4]: C (A compound having a KD ratio of 0.1 or more and less than 3 is denoted as C) | HRAS/KRAS (ratio of KD value with respect to HRAS to KD value with respect to KRAS) [3, 5]: B (a compound having 3 or more and less than 10 is denoted as B)

CCC[C@H]1C(=O)N[C@@H]([C@@H](C)CC)C(=O)N(C)CC(=O)N(C)[C@H]2C/C=C\CCN(C2=O)[C@@H](Cc2ccc(C(F)(F)F)cc2)C(=O)N(C)CC(=O)N[C@@H](CCc2ccc(Cl)c(Cl)c2)C(=O)N2CC[C@H]2C(=O)NC2(CC(C)(C)C2)C(=O)N(C)[C@@H](C(CC)CC)C(=O)N(C)[C@H](C(=O)N(C)C)CC(=O)N1C [PP2921]
Kd [1, 6]: 6.9 nM | NRAS/KRAS (ratio of KD value with respect to GDP-bound NRAS wild-type protein to KD value with respect to KRAS) [2]: AA (a compound having 20 or more is denoted as AA) | HRAS/KRAS (ratio of KD value with respect to GDP-bound HRAS wild-type protein to KD value with respect to KRAS) [3]: A (a compound having 10 or more and less than 20 is denoted as A)

CCCCN1CC(=O)N(C)[C@@H](Cc2ccc(C)cc2)C(=O)N(C)CC(=O)N[C@@H](CCc2ccc(C(F)(F)F)c(Cl)c2)C(=O)N2CCC[C@H]2C(=O)NC2(CCCC2)C(=O)N(C)[C@@H](C2CCCC2)C(=O)N(C)[C@H](C(=O)N2CCOCC2)CC(=O)N(C)[C@@H](CC(C)C)C(=O)N[C@@H]([C@@H](C)CC)C(=O)N(C)CC1=O [PP0021] ([NMeL]I[Sar][NBuGly][NMePhe(4-Me)][Sar][hPhe(3-Cl-4-CF3)]P[Ac5c][NMeGly(cPent)][NMeD]-Morpholide; lactam N-11)
Kd [1, 6]: 0.65 nM | NRAS/KRAS (ratio of KD value for NRAS to KD value for KRAS) [2, 4]: C (A compound having a KD ratio of 0.1 or more and less than 3 is denoted as C) | HRAS/KRAS (ratio of KD value for HRAS to KD value for KRAS) [3, 5]: C (A compound having a KD ratio of 0.1 or more and less than 3 is denoted as C)

CCO[C@@H]1C[C@H]2C(=O)NC3(CCC3)C(=O)N(C)[C@@H](C3CCCC3)C(=O)N(C)[C@H](C)CC(=O)N(C)[C@@H](CC3CC3)C(=O)N[C@@H]([C@@H](C)CC)C(=O)N(C)CC(=O)N(C)[C@H]3C/C=C\CCN(C3=O)[C@@H](Cc3ccc(F)cc3)C(=O)N(C)CC(=O)N[C@@H](CCc3cc(F)c(C(F)(F)F)c(F)c3)C(=O)N2C1 [PP1490]
Kd ([1]; SPR, Single Cycle Kinetics, 1:1 binding model): 0.6 nM | NRAS/KRAS (ratio of KD value for NRAS to KD value for KRAS) ([2]; SPR, GDP-bound NRAS wild-type protein vs GDP-bound KRAS wild-type protein, KD ratio class): B (a compound having 3 or more and less than 10 is denoted as B) | HRAS/KRAS (ratio of KD value for HRAS to KD value for KRAS) ([3]; SPR, GDP-bound HRAS wild-type protein vs GDP-bound KRAS wild-type protein, KD ratio class): B (a compound having 3 or more and less than 10 is denoted as B)

CCO[C@@H]1C[C@H]2C(=O)NC3(CCC3)C(=O)N(C)[C@@H](C3CCCC3)C(=O)N(C)[C@H](C(=O)N(C)C)CC(=O)N(C)[C@@H](Cc3cccc(Cl)c3)C(=O)N[C@@H]([C@@H](C)CC)C(=O)N(C)CC(=O)N(C)[C@H]3C/C=C\CCN(C3=O)[C@@H](Cc3ccc(C(F)(F)F)cc3)C(=O)N(C)CC(=O)N[C@@H](CCc3cc(F)c(C(F)(F)F)c(F)c3)C(=O)N2C1 [PP1127, (2S,8S,12R,14S,20S,23S,27S,30S,36S,38Z)-27-[(3-chlorophenyl)methyl]-20-cyclopentyl-8-[2-[3,5-difluoro-4-(trifluoromethyl)phenyl]ethyl]-12-ethoxy-N,N,4,19,22,26,32,35-octamethyl-30-[(1S)-1-methylpropyl]-3,6,9,15,18,21,25,28,31,34,42-undecaoxo-2-[[4-(trifluoromethyl)phenyl]methyl]spiro[1,4,7,10,16,19,22,26,29,32,35-undecazatricyclo[34.5.1.0^10,14]dotetracont-38-ene-17,1′-cyclobutane]-23-carboxamide]
Kd ([1]; SPR, Single Cycle Kinetics): 0.11 nM | NRAS/KRAS (ratio of KD value for NRAS to KD value for KRAS) [2, 4]: AA (a compound having 20 or more is denoted as AA) | HRAS/KRAS (ratio of KD value for HRAS to KD value for KRAS) [3, 5]: A (a compound having 10 or more and less than 20 is denoted as A)

CCC[C@H]1C(=O)N[C@@H]([C@@H](C)CC)C(=O)N(C)CC(=O)N(C)[C@H]2C/C=C\CCN(C2=O)[C@@H](Cc2ccc(C(F)(F)F)cc2)C(=O)N(C)CC(=O)N[C@@H](CCc2ccc(C(F)(F)F)c(OC)c2)C(=O)N2CC[C@H]2C(=O)NC2(CC(C)(C)C2)C(=O)N(C)[C@@H](C(CC)CC)C(=O)N(C)[C@H](C(=O)N(C)C)CC(=O)N1C [PP2936]
Kd [1, 6]: 2.7 nM | NRAS/KRAS (ratio of KD value with respect to GDP-bound NRAS wild-type protein to KD value with respect to KRAS) [2]: AA (a compound having 20 or more is denoted as AA) | HRAS/KRAS (ratio of KD value with respect to GDP-bound HRAS wild-type protein to KD value with respect to KRAS) [3]: A (a compound having 10 or more and less than 20 is denoted as A)
